Experimental data taken from ChEMBL document CHEMBL5543131, “Discovery of Highly Potent Solute Carrier 13 Member 5 (SLC13A5) Inhibitors for the Treatment of Hyperlipidemia” (J Med Chem, 2024).
Calls of active or inactive are those of the source. No cut-off for these calls is given here.

How the values were obtained:
AML12 [1] = test: Effect on lipid accumulation in oleic and palmitic acid induced mouse AML12 cells assessed as decrease in total cholesterol level; format: functional, cell-based; conditions: dose 3-30 µM
AML12 [2] = test: Effect on lipid accumulation in oleic and palmitic acid induced mouse AML12 cells assessed as decrease in triglyceride level at 3 to 30 uM; format: functional, cell-based; conditions: dose 3-30 µM
AML12 [3] = test: Effect on lipid accumulation in oleic and palmitic acid induced mouse AML12 cells assessed as decrease in total cholesterol level at 3 to 30 uM; format: functional, cell-based; conditions: dose 3-30 µM
AML12 [4] = test: Effect on lipid accumulation in oleic and palmitic acid induced mouse AML12 cells assessed as decrease in triglyceride level; format: functional, cell-based; conditions: dose 3-30 µM
[5] = test system: O=C(O)CC(O)(CCc1ccc(-c2ccccc2)cc1)C(=O)O; test: Binding affinity to SLC13A5 (unknown origin) assessed as Km; conditions: Homo sapiens

Chain of Na(+)/citrate cotransporter (Homo sapiens), Q86YT5 (Q86YT5 whole entry): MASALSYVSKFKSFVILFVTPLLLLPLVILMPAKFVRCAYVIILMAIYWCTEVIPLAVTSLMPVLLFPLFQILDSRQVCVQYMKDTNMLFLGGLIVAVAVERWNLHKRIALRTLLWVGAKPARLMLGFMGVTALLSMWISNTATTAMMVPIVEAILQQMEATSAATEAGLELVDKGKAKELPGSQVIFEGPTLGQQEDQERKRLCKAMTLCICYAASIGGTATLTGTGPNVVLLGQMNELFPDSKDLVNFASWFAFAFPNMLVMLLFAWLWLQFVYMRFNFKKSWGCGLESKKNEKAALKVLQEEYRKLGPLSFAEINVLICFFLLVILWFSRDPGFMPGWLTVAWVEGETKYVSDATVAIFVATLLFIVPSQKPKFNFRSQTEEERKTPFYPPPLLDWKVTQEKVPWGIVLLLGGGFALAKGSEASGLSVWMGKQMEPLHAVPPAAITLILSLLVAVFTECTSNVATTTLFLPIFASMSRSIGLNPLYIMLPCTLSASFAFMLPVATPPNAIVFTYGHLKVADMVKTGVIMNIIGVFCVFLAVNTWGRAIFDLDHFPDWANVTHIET

Molecule	Activity (AML12 [1])	Activity (AML12 [2])	Activity (AML12 [3])	Activity (AML12 [4])	Km [5]
O=C(O)CC(O)(CCc1nc2ccccc2s1)C(=O)O (stereo unspecified)	Dose-Dependent Effect	inactive	–	–	–
CC(C)(C)c1ccc(CC[C@@](O)(CC(=O)O)C(=O)O)cc1	–	inactive	inactive	–	–
O=C(O)CC(O)(CCc1ccc2ccccc2c1)C(=O)O (stereo unspecified)	Dose-Dependent Effect	–	–	Dose-Dependent Effect	–
Na(+)/citrate cotransporter (Homo sapiens), Q86YT5	–	–	–	–	0.19 µM
CCn1nccc1-c1ccc(CCC(O)(CC(=O)O)C(=O)O)cc1 (stereo unspecified)	Dose-Dependent Effect	inactive	–	–	–
COc1ccccc1-c1ccc(CCC(O)(CC(=O)O)C(=O)O)cc1 (stereo unspecified)	Dose-Dependent Effect	–	–	Dose-Dependent Effect	–
